What was measured:
[1] = test system: Trypanosoma cruzi; test: microbe, parasite or virus in culture; assay type: functional, organism-based, Tulahuen LacZ, Clone C4; conditions: Trypanosoma cruzi, Tulahuen LacZ, Clone C4
[2] = DNDI: Cytotoxicity against L-6 rat myoblasts from skeletal muscle cells; conditions: L6 rat skeletal muscle myoblast cells
[3] = test system: Trypanosoma cruzi; test: microbe, parasite or virus in culture; assay type: functional, Tulahuen LacZ, Clone C4; conditions: Trypanosoma cruzi, Tulahuen LacZ, Clone C4

| Structure (SMILES) | IC50 [1] [µM] | IC50 ([2]; IC50) [µM] | IC90 [3] [µM] | IC50 [2] [µM] |
| --- | --- | --- | --- | --- |
| Fc1cc(Cl)ccc1C(NC1CCN(c2ccc(F)c(C(F)(F)F)c2)CC1)c1cccnc1 (centres undefined) | 0.0256 | 58.6 | 0.064 | – |
| COc1cncc(N2CCC(NC(c3ccc(Cl)cc3)c3cccnc3)CC2)c1 (centres undefined) | 0.042 | 58.9 | 0.096 | – |
| Fc1cc(Cl)ccc1C(NC1CCN(c2ccc(Cl)cc2)CC1)c1cccnc1 (centres undefined) | 0.0075 | 47.2 | 0.025 | – |
| Cn1cc(CN2CCC(NC(c3ccc(Cl)cc3)c3cccnc3)CC2)c(C(F)(F)F)n1 (centres undefined) | 0.052 | 51.3 | 0.085 | – |
| Fc1cc(Cl)ccc1N1CCC(NC(c2ccc(Cl)cc2)c2cccnc2)CC1 (centres undefined) | 0.0198 | 56.7 | 0.035 | – |
| Fc1ccccc1OC1CCN(C(c2ccc(C(F)(F)F)cc2)c2cccnc2)CC1 (centres undefined) | 0.062 | 67.8 | > 0.09 | – |
| CCn1cc(C(NC2CCN(c3ccc(C(F)(F)F)cc3)CC2)c2cccnc2)cn1 (centres undefined) | 0.0535 | > 100 | 0.092 | – |
| Clc1ccc(C(NC2CCN(c3ccc(Br)cn3)CC2)c2cccnc2)cc1 (centres undefined) | 0.0257 | 61.8 | 0.084 | – |
| FC(F)(F)c1ccc(N(CC2CCN(c3ccc(Cl)cc3)CC2)c2cccnc2)cc1 | 0.019 | 76.3 | 0.041 | – |
| N#Cc1ccnc(N2CCC(NC(c3ccc(Cl)cc3)c3cccnc3)CC2)n1 (centres undefined) | 0.06 | 57.1 | 0.086 | – |
| CC(O)C(C)N1CCC(NC(c2ccc(Cl)cc2)c2cccnc2)CC1 (centres undefined) | 1.81 | > 100 | 3.16 | – |
| Fc1cc(Cl)ccc1C(NC1CCN(c2ccc(OC(F)(F)F)cc2)CC1)c1cccnc1 (centres undefined) | 0.008 | 48 | 0.024 | – |
| Fc1cc(Cl)ccc1C(NC1CCN(c2nccc(C(F)(F)F)n2)CC1)c1cccnc1 (centres undefined) | 0.0225 | 55.4 | 0.063 | – |
| FC(F)(F)c1ccc(C(c2cccnc2)N2CCC(Oc3ccccc3Cl)CC2)cc1 (centres undefined) | 0.041 | 60.1 | 0.093 | – |
| N#Cc1cnc(N2CCC(NC(c3cccnc3)c3ccc(Cl)cc3F)CC2)s1 (centres undefined) | 0.021 | 55.7 | 0.0445 | – |
| CC(C)(C)OC(=O)N1CCC(CN(c2ccc(C(F)(F)F)cc2)c2cccnc2)CC1 | 0.028 | 51.7 | 0.067 | – |
| Fc1cc(Cl)ccc1C(NC1CCN(c2ccccc2C(F)(F)F)CC1)c1cccnc1 (centres undefined) | 0.017 | 57 | 0.0645 | – |
| FC(F)(F)c1ccc(N2CCC(NC(c3cccnc3)c3cnn(Cc4ccccc4)c3)CC2)cc1 (centres undefined) | 0.006 | 51.6 | 0.011 | – |
| O=C(c1ccccc1)N1CCC(CN(c2ccc(C(F)(F)F)cc2)c2cccnc2)CC1 | 0.043 | 51.4 | 0.086 | – |
| CCn1cc(C(NC2CCN(c3ccc(F)c(F)c3)CC2)c2cccnc2)cn1 (centres undefined) | 0.099 | 62.3 | 0.328 | – |
| CC(C)(C)N1CCC(NC(c2ccc(Cl)cc2)c2cccnc2)CC1 (centres undefined) | 3.06 | > 100 | 8.66 | – |
| Fc1ccc(N2CCC(NC(c3cccnc3)c3ccc(Cl)cc3F)CC2)cc1Cl (centres undefined) | 0.0285 | 54.5 | 0.072 | – |
| Fc1cnc(N2CCC(NC(c3cccnc3)c3ccc(Cl)cc3F)CC2)nc1 (centres undefined) | 0.032 | 73.3 | 0.0935 | – |

| Structure (SMILES) | IC50 [1] [µM] | IC50 ([2]; IC50) [µM] | IC90 [3] [µM] | IC50 [2] [µM] |
| --- | --- | --- | --- | --- |
| CS(=O)(=O)c1ccc(N2CCC(NC(c3cccnc3)c3cnn(CC(F)(F)F)c3)CC2)cc1 (centres undefined) | 4.16 | > 100 | > 10 | – |
| Clc1ccc(CN2CCC(NC(c3ccc(Cl)cc3)c3cccnc3)CC2)cc1 (centres undefined) | 0.066 | 20.3 | 0.098 | – |
| N#Cc1cc(N2CCC(NC(c3cccnc3)c3ccc(Cl)cc3F)CC2)ccc1F (centres undefined) | 0.0207 | 38.4 | 0.047 | – |
| FC(F)(F)c1ccc(N2CCC(NC(c3ccc(Cl)cc3)c3cccnc3)CC2)cc1 (centres undefined) | 0.011 | 53.5 | 0.0275 | – |
| Fc1ccc(N2CCC(NC(c3cccnc3)c3ccc(Cl)cc3F)CC2)cc1 (centres undefined) | 0.019 | 55.4 | 0.053 | – |
| Fc1ccc(N2CCC(NC(c3cccnc3)c3ccc(Cl)cc3F)CC2)cc1F (centres undefined) | 0.014 | 34.2 | 0.042 | – |
| O=S(=O)(c1ccc(C(F)(F)F)cc1)N1CCC(NC(c2cccnc2)c2ccc(Cl)cc2F)CC1 (centres undefined) | 0.036 | 18 | 0.095 | – |
| FC(F)(F)c1ccc(C(c2cccnc2)N2CCC(Oc3cccc(Cl)c3)CC2)cc1 (centres undefined) | 0.059 | 61.2 | > 0.1 | – |
| Cn1cc(C(NC2CCN(c3ccc(C(F)(F)F)cc3)CC2)c2cccnc2)cn1 (centres undefined) | 0.102 | > 100 | 0.249 | – |
| CC(C)(O)CN1CCC(NC(c2ccc(Cl)cc2)c2cccnc2)CC1 (centres undefined) | 0.565 | > 100 | 1.02 | – |
| CC(C)C(CO)N1CCC(NC(c2ccc(Cl)cc2)c2cccnc2)CC1 (centres undefined) | 0.062 | > 100 | > 0.1 | – |
| FC(F)(F)Cn1cc(C(NC2CCN(c3ccc(OC(F)(F)F)cc3)CC2)c2cccnc2)cn1 (centres undefined) | 0.065 | 66.6 | > 0.1 | – |
| Fc1cc(Cl)ccc1C(NC1CCN(Cc2ccc(C(F)(F)F)cc2)CC1)c1cccnc1 (centres undefined) | 0.048 | 26.6 | 0.093 | – |
| COc1ccc(N2CCC(NC(c3cccnc3)c3ccc(Cl)cc3F)CC2)cc1F (centres undefined) | 0.0073 | 47.9 | 0.022 | – |
| Fc1ccc(N2CCC(NC(c3cccnc3)c3ccc(Cl)cc3F)CC2)c(C(F)(F)F)c1 (centres undefined) | 0.032 | 58.9 | 0.05 | – |
| CC(=O)C(C)N1CCC(NC(c2ccc(Cl)cc2)c2cccnc2)CC1 (centres undefined) | 0.0423 | 87.7 | 0.076 | – |
| FC(F)(F)Cn1cc(C(NC2CCN(c3ccc(C(F)(F)F)cc3)CC2)c2cccnc2)cn1 (centres undefined) | 0.046 | 71.2 | 0.088 | – |
| CC(C)(C)c1cc(N2CCC(NC(c3ccc(Cl)cc3)c3cccnc3)CC2)[nH]n1 (centres undefined) | 0.019 | 50.2 | 0.047 | – |
| Fc1ccc(N2CCC(NC(c3ccc(Cl)cc3)c3cccnc3)CC2)cc1C(F)(F)F (centres undefined) | 0.024 | 52.3 | 0.063 | – |
| NC(=O)c1ccccc1N1CCC(NC(c2cccnc2)c2ccc(Cl)cc2F)CC1 (centres undefined) | 0.076 | 71.8 | > 0.1 | – |
| CCn1cc(C(NC2CCN(c3ccc(OC(F)(F)F)cc3)CC2)c2cccnc2)cn1 (centres undefined) | 0.103 | 73.9 | 0.298 | – |
| N#Cc1ccccc1OC1CCN(C(c2ccc(C(F)(F)F)cc2)c2cccnc2)CC1 (centres undefined) | 0.048 | 57.8 | 0.09 | – |
| CSc1ccc(N2CCC(NC(c3ccc(Cl)cc3)c3cccnc3)CC2)cc1 (centres undefined) | 0.007 | 30.2 | 0.019 | – |

| Structure (SMILES) | IC50 [1] [µM] | IC50 ([2]; IC50) [µM] | IC90 [3] [µM] | IC50 [2] [µM] |
| --- | --- | --- | --- | --- |
| Fc1cc(Cl)ccc1C(NC1CCN(Cc2ccc(Cl)cc2Cl)CC1)c1cccnc1 (centres undefined) | 0.039 | 43 | 0.092 | – |
| CC(C)n1cc(C(NC2CCN(c3ccc(C(F)(F)F)cc3)CC2)c2cccnc2)cn1 (centres undefined) | 0.029 | 77 | 0.081 | – |
| Fc1ccc(OC2CCN(C(c3ccc(C(F)(F)F)cc3)c3cccnc3)CC2)cc1 (centres undefined) | 0.021 | 23.8 | 0.03 | – |
| Fc1cnc(N2CCC(NC(c3ccc(Cl)cc3)c3cccnc3)CC2)nc1 (centres undefined) | 0.034 | 58.2 | 0.088 | – |
| CC(c1ccc(C(F)(F)F)cc1)N1CCC(NC(c2cccnc2)c2ccc(Cl)cc2F)CC1 (centres undefined) | 0.075 | 19.5 | > 0.1 | – |
| Cc1noc(C)c1C(=O)N1CCC(CN(c2ccc(C(F)(F)F)cc2)c2cccnc2)CC1 | 0.086 | 72.4 | > 0.1 | – |
| FC(F)(F)c1ccc(C(c2cccnc2)N2CCC(Oc3ccccc3)CC2)cc1 (centres undefined) | 0.0265 | 54.4 | > 0.1 | – |
| Fc1cc(Cl)cc(N2CCC(NC(c3cccnc3)c3ccc(Cl)cc3F)CC2)c1 (centres undefined) | 0.019 | 53.1 | 0.05 | – |
| Clc1ccc(C(NC2CCN(c3ccc(Cl)cn3)CC2)c2cccnc2)cc1 (centres undefined) | 0.035 | 66.8 | 0.076 | – |
| N#Cc1cnc(N2CCC(NC(c3ccc(Cl)cc3)c3cccnc3)CC2)s1 (centres undefined) | 0.017 | 48.6 | 0.025 | – |
| CCn1cc(C(NC2CCN(c3ccc(S(C)(=O)=O)cc3)CC2)c2cccnc2)cn1 (centres undefined) | 6.04 | > 100 | > 10 | – |
| CCC(C(C)O)N1CCC(NC(c2ccc(Cl)cc2)c2cccnc2)CC1 (centres undefined) | 0.23 | > 100 | 0.6 | – |
| Fc1cc(Cl)ccc1C(NC1CCN(c2nc3ccccc3s2)CC1)c1cccnc1 (centres undefined) | 0.265 | > 100 | 0.57 | – |
| CC(c1ccccc1)N1CCC(NC(c2cccnc2)c2ccc(Cl)cc2F)CC1 (centres undefined) | 0.314 | 19.1 | 0.597 | – |
| COc1ccc(CN2CCC(NC(c3cccnc3)c3ccc(Cl)cc3F)CC2)cc1 (centres undefined) | 0.37 | 52 | 4.38 | – |
| CO/C=C(/C(=O)OC)c1ccccc1Oc1cc(Oc2ccccc2C#N)ncn1 [AZOXYSTROBIN] | 3.26 | – | 8.68 | 50.3 |
| CC1=C(C(=O)Nc2ccccc2)SCCO1 [CARBOXIN] | 22.4 | – | 57.5 | > 100 |
| COc1nc(C)nc(NC(=O)NS(=O)(=O)c2ccccc2Cl)n1 [CHLORSULFURON] | 45 | – | 100 | > 100 |
| Cc1ccc(-c2c(Cl)nc(C#N)n2S(=O)(=O)N(C)C)cc1 [Cyazofamid] | 47.2 | – | > 100 | 74 |
| CCCCc1c(C)nc(NCC)[nH]c1=O [ETHIRIMOL] | > 100 | – | 100 | > 100 |
| Cc1occc1C(=O)Nc1ccccc1 [FENFURAM] | 75 | – | > 100 | > 100 |
| CC(C)NC(=O)N1CC(=O)N(c2cc(Cl)cc(Cl)c2)C1=O [IPRODIONE] | 49 | – | > 100 | > 100 |
